Source: patent publication US20250262161A1, “COMPOSITION, METHOD FOR ITS PREPARATION AND ITS USE FOR INCREASING THE SOLUBILITY OF ACTIVE SUBSTANCES” (Philipps-Universität Marburg, priority 2021, published 2025)

Test: Solubility of curcumin in water (amount dissolved, UV/Vis measurement)
Type: physicochemical
Conditions: visual yellow colouring of supernatant
Description: Curcumin was first incorporated into eggshell flour. Two different methods were used for this purpose. […] Ethanol was evaporated without stirring (HP). […] Ethanol was evaporated with stirring (R). For comparison, curcumin was mixed with eggshell meal (physical mixture=PM) and added to water as a pure substance (bulk). From all samples, the amount of dissolved curcumin was measured. […] The dissolved amount of curcumin was determined at different time points by UV/Vis measurement. […] For method 2, the solubility was approximately 50 times higher.
The physical mixture contained similar amounts.

## COc1cc(/C=C/C(=O)CC(=O)/C=C/c2ccc(O)c(OC)c2)ccc1O [pure substance, Curcumin]
  dissolution of curcumin in the water phase (discolouration of aqueous supernatant): no dissolution of curcumin occurred
